Drawing on PubChem BioAssay (NCI), this text covers TGI and GI50 for twelve molecules.

Each structure is given as a SMILES string.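 Dose response: 5 concentrations. Exposure: 48 h. Format: 96-well plates. Endpoint: linear interpolation; highest concentration if not reached. At the GI50, growth is halved. At the TGI there is no net growth.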

Some test systems named below: HL-60(TB) leukemia; U251 CNS; HT29 colon; UACC-257 melanoma; OVCAR-5 ovarian; NCI-H226 lung; OVCAR-8 ovarian; A498 renal; BT-549 breast; HS 578T breast.
Holding throughout (assay): NCI anticancer screen, dose series, 48 h

Turning to `OCc1ccc(-c2ccc(-c3ccc(CO)s3)o2)s1`, the TGI with HL-60(TB) leukemia was 38.2 µM; with U251 CNS, 23.4 µM; with HT29 colon it was over 95 µM; with UACC-257 melanoma, 0.0669 µM; with OVCAR-5 ovarian, 0.102 µM; in the assay with NCI-H226 lung, 0.145 µM. Further, the TGI in the assay with OVCAR-8 ovarian stood at 61.4 µM; with A498 renal, 0.0278 µM; in the assay with BT-549 breast, 50.7 µM; in the assay with HS 578T breast it was 86.6 µM.
With `O=C(CSc1ccc(Cl)cc1)Nc1ccc(-c2nc3ccccc3s2)c(Cl)c1`, the GI50 is 13.4 µM in the assay on HL-60(TB) leukemia; 3.71 µM in the assay with U251 CNS; 6.86 µM in the assay with HT29 colon; 15.7 µM with UACC-257 melanoma; 11.6 µM in the assay on OVCAR-5 ovarian; 4.9 µM in the assay on NCI-H226 lung. Further, the GI50 was 5.09 µM with OVCAR-8 ovarian, 1.98 µM in the assay on A498 renal, 2.76 µM in the assay on BT-549 breast and 2.56 µM in the assay with HS 578T breast. The TGI was over 100 µM in the assay with HL-60(TB) leukemia; 18.7 µM in the assay on U251 CNS; over 100 µM with HT29 colon; over 100 µM in the assay on UACC-257 melanoma; 55.4 µM with OVCAR-5 ovarian; 64.1 µM in the assay on NCI-H226 lung. Further, the TGI in the assay on OVCAR-8 ovarian was over 100 µM; with A498 renal, 6.34 µM; in the assay on BT-549 breast, 8.53 µM; in the assay with HS 578T breast, 7.99 µM.
On to `COc1ccc(-c2nnc(COc3ccc(C(=O)/C=C/c4ccco4)cc3)o2)cc1`, for which the GI50 with HL-60(TB) leukemia was 2.65 µM; with U251 CNS, 1.62 µM; with HT29 colon, 1.91 µM; in the assay on UACC-257 melanoma, 2.94 µM; in the assay on OVCAR-5 ovarian it was 5.85 µM; with NCI-H226 lung, 4 µM. In addition, the GI50 is 3.04 µM with OVCAR-8 ovarian, 11.4 µM in the assay on A498 renal, 2.87 µM in the assay on BT-549 breast and 7.43 µM in the assay on HS 578T breast. The TGI was 7.38 µM in the assay on HL-60(TB) leukemia; 3.08 µM with U251 CNS; 3.61 µM in the assay on HT29 colon; 10.5 µM with UACC-257 melanoma; 19.1 µM in the assay on OVCAR-5 ovarian; 16.8 µM in the assay on NCI-H226 lung. The TGI in the assay on OVCAR-8 ovarian amounted to 10.1 µM; in the assay with A498 renal it was 23.6 µM; in the assay with BT-549 breast it was 8.16 µM; in the assay with HS 578T breast, 43.1 µM.
On to `OC(c1nc2ccccc2[nH]1)C(O)C(O)C(O)c1nc2ccccc2[nH]1` (stereo not drawn), for which the TGI in the assay with HL-60(TB) leukemia, with U251 CNS, in the assay with HT29 colon, in the assay with UACC-257 melanoma, with OVCAR-5 ovarian and with NCI-H226 lung was over 100 µM in each case. The TGI with OVCAR-8 ovarian, in the assay on A498 renal, in the assay on BT-549 breast and in the assay with HS 578T breast was over 100 µM in each case.
Turning to `O=c1c2sccc2n(CC2COc3ccccc3O2)c(=O)n1O` (stereo not drawn), the GI50 with HL-60(TB) leukemia was 16.9 µM; in the assay on U251 CNS, 7.52 µM; in the assay with HT29 colon, 24.1 µM; in the assay on UACC-257 melanoma it was 22.4 µM; with OVCAR-5 ovarian, 40 µM; in the assay with NCI-H226 lung, 24.6 µM. For the same molecule, the GI50 in the assay on OVCAR-8 ovarian is 30.5 µM; in the assay on A498 renal, 13.3 µM; in the assay on BT-549 breast, 12.1 µM; in the assay on HS 578T breast, 15.1 µM. Besides, the TGI is 44.7 µM in the assay with HL-60(TB) leukemia; over 100 µM in the assay on U251 CNS; over 100 µM in the assay with HT29 colon; over 100 µM in the assay on UACC-257 melanoma; over 100 µM with OVCAR-5 ovarian; 83.6 µM in the assay on NCI-H226 lung. Further, the TGI with OVCAR-8 ovarian is over 100 µM; in the assay with A498 renal, 38.1 µM; in the assay on BT-549 breast it was over 100 µM; in the assay on HS 578T breast, over 100 µM.
On to `CC(C)(C)OC(=O)N[C@H]1CC2(C=C(Cl)C(=O)C(Cl)=C2)OC1=O`, for which the TGI in the assay on HL-60(TB) leukemia is 6.53 µM; in the assay with U251 CNS it was 45.2 µM; with HT29 colon, 27.9 µM; with UACC-257 melanoma, 21.2 µM; with OVCAR-5 ovarian, 38.6 µM; in the assay on NCI-H226 lung, over 81.6 µM. Moreover, the TGI in the assay on OVCAR-8 ovarian was 34.5 µM; in the assay on A498 renal, over 9.94 µM; in the assay on BT-549 breast, 29.9 µM; in the assay with HS 578T breast it was 75.5 µM.
Consider `COc1cc(/C=C/c2cc(O)c(C(C)=O)c(O)c2)cc2c1O[C@]1(C)CC[C@@H](O)C(C)(C)[C@H]1C2`, for which the GI50 in the assay on HL-60(TB) leukemia is 4.13 µM; in the assay with U251 CNS it was 3.71 µM; with HT29 colon, 4.05 µM; in the assay on UACC-257 melanoma, 11 µM; with OVCAR-5 ovarian, 16.3 µM; in the assay with NCI-H226 lung, 16.8 µM. Moreover, the GI50 in the assay with OVCAR-8 ovarian is 8.24 µM; with A498 renal it was 4.78 µM; with BT-549 breast, 3.03 µM; in the assay with HS 578T breast, 1.87 µM. In addition, the TGI with HL-60(TB) leukemia is 23.8 µM; in the assay with U251 CNS it was over 100 µM; in the assay with HT29 colon, over 100 µM; in the assay on UACC-257 melanoma it was 72.7 µM; in the assay with OVCAR-5 ovarian, 75.5 µM; in the assay with NCI-H226 lung it was 54.2 µM. For the same molecule, the TGI in the assay with OVCAR-8 ovarian is over 100 µM; with A498 renal, 48.3 µM; in the assay on BT-549 breast it was 27.6 µM; with HS 578T breast, 16.2 µM.
`C[C@@H]1CCC2[C@@H](C)[C@@H](OCC(CO[C@H]3OC4O[C@@]5(C)CC[C@H]6[C@H](C)CCC([C@H]3C)[C@@]46OO5)OC(=O)CCC(=O)O)OC3O[C@@]4(C)CC[C@@H]1[C@]32OO4` (stereo partly drawn): the GI50 was 0.0111 µM with HL-60(TB) leukemia; under 0.01 µM in the assay on U251 CNS; under 0.01 µM in the assay on HT29 colon; 0.708 µM in the assay with UACC-257 melanoma; under 0.01 µM with OVCAR-5 ovarian; 0.933 µM in the assay with NCI-H226 lung. The GI50 in the assay on OVCAR-8 ovarian is 0.511 µM; with A498 renal, 13.8 µM; in the assay on BT-549 breast, 3.74 µM; in the assay with HS 578T breast, 1.81 µM. Further, the TGI in the assay on HL-60(TB) leukemia was 0.513 µM; in the assay on U251 CNS, 24.5 µM; with HT29 colon it was over 34.9 µM; in the assay on UACC-257 melanoma it was 37.3 µM; with OVCAR-5 ovarian it was 14.7 µM; in the assay on NCI-H226 lung it was 40 µM. Besides, the TGI is 27.2 µM in the assay with OVCAR-8 ovarian, 31.3 µM in the assay on A498 renal, 29.4 µM in the assay with BT-549 breast and 34.9 µM in the assay on HS 578T breast.
For the molecule `C=C1C(=O)O[C@H]2[C@H]1CC/C(COC(=O)c1c[nH]c3ccccc13)=C\CC[C@@]1(C)O[C@@H]21`, the GI50 with HL-60(TB) leukemia is 0.278 µM; with U251 CNS, 0.616 µM; with HT29 colon, 0.249 µM; with UACC-257 melanoma, 0.368 µM; in the assay with OVCAR-5 ovarian, 0.405 µM; in the assay with NCI-H226 lung, 0.445 µM. The GI50 in the assay on OVCAR-8 ovarian is 0.282 µM; with A498 renal, 0.267 µM; in the assay on BT-549 breast it was 0.175 µM; in the assay on HS 578T breast, 0.613 µM. For the same molecule, the TGI in the assay on HL-60(TB) leukemia is 0.789 µM; in the assay on U251 CNS, 1.93 µM; in the assay on HT29 colon it was 0.58 µM; in the assay on UACC-257 melanoma it was 1.49 µM; with OVCAR-5 ovarian, 2.1 µM; in the assay on NCI-H226 lung, 1.96 µM. In addition, the TGI stood at 1.03 µM in the assay on OVCAR-8 ovarian, 1.03 µM with A498 renal, 0.414 µM in the assay on BT-549 breast and 6.83 µM in the assay with HS 578T breast.
For `CC(C)C(C)/C=C\C(C)C1CCC2C3=CC=C4CC(O)CCC4(C)C3CCC21C` (stereo not drawn), the TGI is over 77.7 µM in the assay on HL-60(TB) leukemia; over 47.7 µM with U251 CNS; over 55.8 µM in the assay on HT29 colon; over 100 µM in the assay on UACC-257 melanoma; over 100 µM with OVCAR-5 ovarian; over 65.3 µM with NCI-H226 lung. The TGI is over 53.9 µM in the assay with OVCAR-8 ovarian, over 100 µM in the assay on A498 renal, over 85.6 µM with BT-549 breast and over 64.2 µM with HS 578T breast.
With `C=C1NC(=O)C(C(C)CC)NC(=O)C2CSCC(NC(=O)CCC(=O)O)C(=O)NC(Cc3ccccc3)C(=O)NC(C)C(=O)NC(CC(C)CC)C(=O)NC(C(=O)NC(Cc3ccccc3)C(=O)N3CCCC3C(=O)N2)C(C)OC(=O)C(CO)NC(=O)C(C(O)COC)N(C)C(=O)C(C(C)C)NC(=O)C(CC(C)CC)NC1=O` (stereo not drawn), the GI50 is 0.0211 µM in the assay on HL-60(TB) leukemia; 0.0101 µM with U251 CNS; 0.0165 µM with HT29 colon; over 6 µM in the assay with UACC-257 melanoma; 0.0327 µM in the assay with OVCAR-5 ovarian; 0.117 µM in the assay on NCI-H226 lung. For the same molecule, the GI50 is 0.0678 µM in the assay with OVCAR-8 ovarian, 0.00667 µM in the assay with A498 renal, 0.0728 µM in the assay with BT-549 breast and 0.0115 µM with HS 578T breast. The TGI in the assay with U251 CNS, in the assay on HT29 colon, in the assay on UACC-257 melanoma, with OVCAR-5 ovarian, in the assay with NCI-H226 lung and with OVCAR-8 ovarian was over 6 µM in each case. The TGI is 0.512 µM in the assay on A498 renal, over 6 µM with BT-549 breast and over 6 µM in the assay with HS 578T breast.
As to `COc1cc2c3c(n(C)c(=O)c2cc1OC)-c1cc2c(cc1/C3=C\CCN)OCO2`, the GI50 with HL-60(TB) leukemia was 0.236 µM; with U251 CNS, 0.16 µM; in the assay with HT29 colon it was 0.138 µM; with UACC-257 melanoma, 1.03 µM; in the assay with OVCAR-5 ovarian, 0.255 µM; in the assay with NCI-H226 lung it was 0.517 µM. Moreover, the GI50 in the assay with OVCAR-8 ovarian is 0.169 µM; in the assay with A498 renal it was 11.4 µM; with BT-549 breast, 2.13 µM; with HS 578T breast, 2.01 µM. Moreover, the TGI was 1.52 µM with HL-60(TB) leukemia; 22.8 µM with U251 CNS; over 34.8 µM in the assay with HT29 colon; 16.9 µM in the assay on UACC-257 melanoma; 3.7 µM in the assay on OVCAR-5 ovarian; 2.42 µM in the assay with NCI-H226 lung. In addition, the figures for the TGI in the assay with OVCAR-8 ovarian, with A498 renal and in the assay with BT-549 breast were 5.65 µM, 27.7 µM and 46.1 µM, respectively.
